Results reported in patent US9765092B2, “Tricyclic piperidine compounds” (ACTELION PHARMACEUTICALS LTD, priority 2013, dated 2017).

Each compound was assayed against human TPH1 (Homo sapiens (Human), UniProt P17752) (assay: Biochemical in vitro assay using fluorescence readout (TPH1 inhibition)). Details: not given.
Chain of human TPH1 (P17752 whole entry): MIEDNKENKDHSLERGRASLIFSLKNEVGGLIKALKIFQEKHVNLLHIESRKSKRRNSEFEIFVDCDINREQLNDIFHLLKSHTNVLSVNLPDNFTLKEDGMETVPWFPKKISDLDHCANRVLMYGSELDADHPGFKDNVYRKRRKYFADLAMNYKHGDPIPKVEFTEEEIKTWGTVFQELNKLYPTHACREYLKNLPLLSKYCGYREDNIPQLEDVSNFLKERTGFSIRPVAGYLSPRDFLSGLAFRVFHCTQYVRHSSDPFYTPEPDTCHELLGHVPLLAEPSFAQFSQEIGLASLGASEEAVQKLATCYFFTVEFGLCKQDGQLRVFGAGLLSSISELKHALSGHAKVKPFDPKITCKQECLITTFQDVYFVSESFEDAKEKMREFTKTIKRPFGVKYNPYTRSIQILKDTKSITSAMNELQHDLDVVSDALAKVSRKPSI

Compound | IC50
CCc1nc(N2CCCS2(=O)=O)ccc1OCC(=O)N1CCc2nc3sc(C(F)(F)F)nn3c2C1c1ccc(Cl)cc1F (centres unmarked) [Example 5.1.3, 1-(5-(4-chloro-2-fluorophenyl)-2-(trifluoromethyl)-7,8-dihydro-[1,3,4]thiadiazolo[2′,3′:2,3]imidazo[4,5-c]pyridin-6(5H)-yl)-2-((6-(1,1-dioxidoisothiazolidin-2-yl)-2-ethylpyridin-3-yl)oxy)ethanone] | 10 nM

Same assay, conditions: full length human TPH1, 40 μM L-tryptophan, 15° C., 60 minutes, fluorescence at 540 nm; mean if determined several times

Compound | IC50
Cc1nn2c3c(nc2s1)CCN(C(=O)COc1ccc(N2CCOCC2)nc1Cl)C3c1cnc(N2CC(F)(F)C2)s1 (centres unmarked) [Example 1.49.1, 2-((2-Chloro-6-morpholinopyridin-3-yl)oxy)-1-(5-(2-(3,3-difluoro-azetidin-1-yl)thiazol-5-yl)-2-methyl-7,8-dihydro-[1,3,4]thiadiazolo[2′,3′:2,3]imidazo[4,5-c]pyridin-6(5H)-yl)-ethanone] | 15 nM
Cc1nn2c3c(nc2s1)CCN(C(=O)COc1ccc(N2CCOCC2)nc1Cl)C3c1nc(N)sc1F (centres unmarked) [Example 1.52.1, 1-(5-(2-Amino-5-fluorothiazol-4-yl)-2-methyl-7,8-dihydro-[1,3,4]thiadiazolo[2′,3′:2,3]-imidazo[4,5-c]pyridin-6(5H)-yl)-2-((2-chloro-6-morpholinopyridin-3-yl)oxy)ethanone] | 6 nM
Cc1nn2c3c(nc2s1)CCN(C(=O)COc1ccc(N)nc1Cl)C3c1ccc(Cl)cc1F (centres unmarked) [Example 1.4.22, 2-((6-amino-2-chloropyridin-3-yl)oxy)-1-(5-(4-chloro-2-fluorophenyl)-2-methyl-7,8-dihydro-[1,3,4]thiadiazolo[2′,3′:2,3]imidazo[4,5-c]pyridin-6(5H)-yl)-ethanone] | 10 nM
Cc1nn2c3c(nc2s1)CCN(C(=O)COc1ccc(N2CCNCC2=O)nc1Cl)C3c1ccc(Cl)cc1F (centres unmarked) [Example 1.4.35, 1-(6-chloro-5-(2-(5-(4-chloro-2-fluorophenyl)-2-methyl-7,8-dihydro-[1,3,4]thiadiazolo[2′,3′:2,3]imidazo[4,5-c]pyridin-6(5H)-yl)-2-oxoethoxy)pyridin-2-yl)piperazin-2-one] | 6 nM
Cc1nn2c3c(nc2s1)CCN(C(=O)COc1ccc(N2CCC(F)(F)C2)nc1Cl)C3c1ccc(Cl)cc1F (centres unmarked) [Example 1.4.37, 1-(5-(4-Chloro-2-fluorophenyl)-2-methyl-7,8-dihydro-[1,3,4]thiadiazolo[2′,3′:2,3]imidazo[4,5-c]pyridin-6(5H)-yl)-2-((2-chloro-6-(3,3-difluoropyrrolidin-1-yl)pyridin-3-yl)oxy)ethanone] | 3 nM
CNc1ccc(OCC(=O)N2CCc3nc4sc(C)nn4c3C2c2ccc(Cl)cc2F)c(Cl)n1 (centres unmarked) [Example 1.4.27, 1-(5-(4-Chloro-2-fluorophenyl)-2-methyl-7,8-dihydro-[1,3,4]thiadiazolo[2′,3′:2,3]imidazo[4,5-c]pyridin-6(5H)-yl)-2-((2-chloro-6-(methylamino)pyridin-3-yl)oxy)ethanone] | 6 nM

Same assay, conditions: human TPH1, fluorescence readout

Compound | IC50
N-(5-(2-(5-(4-(aminomethyl)-2-fluorophenyl)-2-methyl-7,8-dihydro-[1,3,4]thiadiazolo[2′,3′:2,3]imidazo[4,5-c]pyridin-6(5H)-yl)-2-oxoethoxy)-6-chloropyridin-2-yl)methanesulfonamide [Example 1.78.1] | 10 nM
O=C(COc1ccc(CN2CCOCC2)cc1Cl)N1CCc2nc3sccn3c2C1c1cnn(-c2ccccc2)c1 (centres unmarked) [Example 6.13.5, 2-(2-chloro-4-(morpholinomethyl)phenoxy)-1-(5-(1-phenyl-1H-pyrazol-4-yl)-7,8-dihydrothiazolo-[2′,3′:2,3]imidazo[4,5-c]pyridin-6(5H)-yl)ethanone] | 7 nM
Cc1nn2c3c(nc2s1)CCN(C(=O)COc1cccnc1C)C3c1ccc(C2CC2)cc1F (centres unmarked) [Example 1.6.6, 1-(5-(4-cyclopropyl-2-fluorophenyl)-2-methyl-7,8-dihydro-[1,3,4]thiadiazolo[2′,3′:2,3]imidazo[4,5-c]pyridin-6(5H)-yl)-2-((2-methylpyridin-3-yl)oxy)ethanone] | 25 nM
Cc1nn2c3c(nc2s1)CCN(C(=O)COc1ccc(N2CCOCC2)nc1Cl)C3c1sc(C(=O)N(C)C)cc1F (centres unmarked) [Example 1.24.1, 5-(6-(2-((2-chloro-6-morpholinopyridin-3-yl)oxy)acetyl)-2-methyl-5,6,7,8-tetrahydro-[1,3,4]thiadiazolo[2′,3′:2,3]imidazo[4,5-c]pyridin-5-yl)-4-fluoro-N,N-dimethylthiophene-2-carboxamide] | 2 nM
Cc1nn2c3c(nc2s1)CCN(C(=O)COc1ccc(Cl)cc1C)C3c1cc(CN(C)C)cs1 (centres unmarked) [Example 1.8.3, 2-(4-chloro-2-methylphenoxy)-1-(5-(4-((dimethylamino)methyl)thiophen-2-yl)-2-methyl-7,8-dihydro-[1,3,4]thiadiazolo [2′,3′:2,3]imidazo[4,5-c]pyridin-6(5H)-yl)ethanone] | 95 nM
Cc1nc(C)c(C2c3c(nc4sc(C)nn34)CCN2C(=O)COc2ccc(-c3ncco3)nc2Cl)s1 (centres unmarked) [Example 1.68.3, 2-((2-chloro-6-(oxazol-2-yl)pyridin-3-yl)oxy)-1-(5-(2,4-dimethylthiazol-5-yl)-2-methyl-7,8-dihydro-[1,3,4]thiadiazolo[2′,3′:2,3]imidazo[4,5-c]pyridin-6(5H)-yl)ethanone] | 9 nM
COC(=O)c1ccc(OCC(=O)N2CCc3nc4sc(C)nn4c3C2c2ccc(C3CC3)cc2F)c(Cl)n1 (centres unmarked) [Example 1.6.21, Methyl 6-chloro-5-(2-(5-(4-cyclopropyl-2-fluorophenyl)-2-methyl-7,8-dihydro-[1,3,4]thiadiazolo[2′,3′:2,3]imidazo[4,5-c]pyridin-6(5H)-yl)-2-oxoethoxy)picolinate] | 8 nM
Cc1nn2c3c(nc2s1)CCN(C(=O)COc1ccc(N2CCOCC2)nc1Cl)C3c1nc(CN(C)C)cs1 (centres unmarked) [Example 1.17.1, 2-((2-chloro-6-morpholinopyridin-3-yl)oxy)-1-(5-(4-((dimethylamino)methyl)thiazol-2-yl)-2-methyl-7,8-dihydro-[1,3,4]thiadiazolo[2′,3′:2,3]imidazo[4,5-c]pyridin-6(5H)-yl)ethanone] | 62 nM
Cc1nn2c3c(nc2s1)CCN(C(=O)COc1ccc(C(=O)N(C)C)nc1Cl)[C@H]3c1sc(C(=O)N(C)C)cc1F [Example 1.24.11] | 4 nM
O=C(COc1cccnc1Cl)N1CCc2nc3sccn3c2C1c1cc2cccnc2s1 (centres unmarked) [Example 6.14.3, 2-((2-chloropyridin-3-yl)oxy)-1-(5-(thieno[2,3-b]pyridin-2-yl)-7,8-dihydrothiazolo[2′,3′:2,3]imidazo[4,5-c]pyridin-6(5H)-yl)ethanone] | 67 nM
COc1ccc(C2c3c(nc4sccn34)CCN2C(=O)COc2ccc(CN3CCOCC3)nc2Cl)c(F)c1 (centres unmarked) [Example 6.3.2, 2-((2-chloro-6-(morpholinomethyl)pyridin-3-yl)oxy)-1-(5-(2-fluoro-4-methoxyphenyl)-7,8-dihydrothiazolo-[2′,3′:2,3]imidazo[4,5-c]pyridin-6(5H)-yl)ethanone] | 9 nM
Cc1nn2c3c(nc2s1)CCN(C(=O)COc1ccc(C(F)(F)F)cc1Cl)C3c1sccc1F (centres unmarked) [Example 1.23.5, 2-(2-chloro-4-(trifluoromethyl)phenoxy)-1-(5-(3-fluorothiophen-2-yl)-2-methyl-7,8-dihydro-[1,3,4]thiadiazolo[2′,3′:2,3]imidazo[4,5-c]pyridin-6(5H)-yl)ethanone] | 9 nM
CCc1ncccc1OCC(=O)N1CCc2nc3sc(C)nn3c2C1c1coc(-c2ccccc2)n1 (centres unmarked) [Example 1.12.2, 2-((2-ethylpyridin-3-yl)oxy)-1-(2-methyl-5-(2-phenyloxazol-4-yl)-7,8-dihydro-[1,3,4]thiadiazolo[2′,3′:2,3]imidazo[4,5-c]pyridin-6(5H)-yl)ethanone] | 336 nM
Cc1ncc(OCC(=O)N2CCc3nc4sc(C)nn4c3C2c2ccc(C3CC3)cc2F)c(C)n1 (centres unmarked) [Example 1.6.27, 1-(5-(4-cyclopropyl-2-fluorophenyl)-2-methyl-7,8-dihydro-[1,3,4]thiadiazolo[2′,3′:2,3]imidazo[4,5-c]pyridin-6(5H)-yl)-2-((2,4-dimethylpyrimidin-5-yl)oxy)ethanone] | 161 nM
Cc1ncc(C2c3c(nc4sc(C)nn34)CCN2C(=O)COc2ccc(C(=O)N(C)C)nc2Cl)s1 (centres unmarked) [Example 1.59.1, 6-chloro-N,N-dimethyl-5-(2-(2-methyl-5-(2-methylthiazol-5-yl)-7,8-dihydro-[1,3,4]thiadiazolo[2′,3′:2,3]imidazo[4,5-c]pyridin-6(5H)-yl)-2-oxoethoxy)picolinamide] | 37 nM
Cc1cnc(C2c3c(nc4sc(C)nn34)CCN2C(=O)COc2ccc(NS(C)(=O)=O)cc2Cl)c(F)c1 (centres unmarked) [Example 1.31.10, N-(3-chloro-4-(2-(5-(3-fluoro-5-methylpyridin-2-yl)-2-methyl-7,8-dihydro-[1,3,4]thiadiazolo[2′,3′:2,3]imidazo[4,5-c]pyridin-6(5H)-yl)-2-oxoethoxy)phenyl)methanesulfonamide] | 11 nM
2-(4-(aminomethyl)-2-chlorophenoxy)-1-(5-(3-fluorothiophen-2-yl)-2-methyl-7,8-dihydro-[1,3,4]thiadiazolo[2′,3′:2,3]imidazo[4,5-c]pyridin-6(5H)-yl)ethanone [Example 1.23.7] | 38 nM
N#Cc1ccc(OCC(=O)N2CCc3nc4sc(C5CC5)nn4c3C2c2ccc(Cl)cc2F)c(Cl)c1 (centres unmarked) [Example 4.1.2, 3-chloro-4-(2-(5-(4-chloro-2-fluorophenyl)-2-cyclopropyl-7,8-dihydro-[1,3,4]thiadiazolo-[2′,3′:2,3]imidazo[4,5-c]pyridin-6(5H)-yl)-2-oxoethoxy)benzonitrile] | 23 nM
CCOC(=O)c1csc(C2c3c(nc4sc(C)nn34)CCN2C(=O)COc2ccc(N3CCOCC3)nc2Cl)n1 (centres unmarked) [Example 1.27.1, ethyl 2-(6-(2-((2-chloro-6-morpholinopyridin-3-yl)oxy)acetyl)-2-methyl-5,6,7,8-tetrahydro-[1,3,4]thiadiazolo[2′,3′:2,3]imidazo[4,5-c]pyridin-5-yl)thiazole-4-carboxylate] | 7 nM
